This experiment deals with MV-4-11 cells. Kind of experiment: Gene expression microarray analysis (Affymetrix PrimeView) and GSEA. It is filed as cell-based, human. Also on record: RFU PODN (11730768_x_at) / Fold change /veh PODN (11730768_x_at) / RFU LINC00158 (11744669_a_at) / Fold change /veh LINC00158 (11744669_a_at) / RFU DUSP10 (11751237_a_at) / Fold change /veh DUSP10 (11751237_a_at) / RFU ID3 (11757404_x_at) / Fold change /veh ID3 (11757404_x_at) / RFU PLEKHG5 (11737974_s_at) / Fold change /veh PLEKHG5 (11737974_s_at) / RFU LRRC4B (11730491_at) / Fold change /veh LRRC4B (11730491_at) / RFU GIMAP4 (11747438_a_at) / Fold change /veh GIMAP4 (11747438_a_at) / RFU KRT8 (11758183_x_at) / Fold change /veh KRT8 (11758183_x_at) / RFU CNN1 (11734310_a_at) / Fold change /veh CNN1 (11734310_a_at) / RFU VPS37D (11726825_at) / Fold change /veh VPS37D (11726825_at) / RFU C10orf10 (11716522_x_at) / Fold change /veh C10orf10 (11716522_x_at) / RFU KIR2DL2 /// KIR2DL4 /// KIR2DL5A /// KIR2DL5B /// KIR2DS1 /// KIR2DS2 /// KIR2DS3 /// KIR2DS4 /// KIR3DL3 /// KIR3DL3 /// KIR3DS1 (11738374_at) / Fold change /veh KIR2DL2 /// KIR2DL4 /// KIR2DL5A /// KIR2DL5B /// KIR2DS1 /// KIR2DS2 /// KIR2DS3 /// KIR2DS4 /// KIR3DL3 /// KIR3DL3 /// KIR3DS1 (11738374_at) / RFU C1QL1 (11718748_at) / Fold change /veh C1QL1 (11718748_at) / RFU TMPRSS4 (11747572_a_at) / Fold change /veh TMPRSS4 (11747572_a_at) / RFU HAMP (11756126_x_at) / Fold change /veh HAMP (11756126_x_at) / RFU RNFT2 (11725882_a_at) / Fold change /veh RNFT2 (11725882_a_at) / RFU NR4A2 (11747474_a_at) / Fold change /veh NR4A2 (11747474_a_at) / RFU ABCC12 (11746883_a_at) / Fold change /veh ABCC12 (11746883_a_at) / RFU TMEM136 (11760407_x_at) / Fold change /veh TMEM136 (11760407_x_at) / RFU CLDN22 /// WWC2 (11732394_at) / Fold change /veh CLDN22 /// WWC2 (11732394_at) / RFU HLA-DPB1 (11760878_x_at) / Fold change /veh HLA-DPB1 (11760878_x_at) / RFU SPINT1 (11716480_a_at) / Fold change /veh SPINT1 (11716480_a_at) / RFU GAP43 (11754022_s_at) / Fold change /veh GAP43 (11754022_s_at) / RFU A4GNT (11735810_at) / Fold change /veh A4GNT (11735810_at) / RFU PRB3 (11715151_x_at) / Fold change /veh PRB3 (11715151_x_at) / RFU TUBB4B (11761932_at) / Fold change /veh TUBB4B (11761932_at) / RFU CAPN14 (11732068_a_at) / Fold change /veh CAPN14 (11732068_a_at) / RFU TMCC2 (11721928_a_at) / Fold change /veh TMCC2 (11721928_a_at) / RFU IRGQ (11745062_a_at) / Fold change /veh IRGQ (11745062_a_at) / RFU FAM174B (11720279_a_at) / Fold change /veh FAM174B (11720279_a_at) / RFU TMPRSS4 (11748680_a_at) / Fold change /veh TMPRSS4 (11748680_a_at) / RFU FAM212B (11763350_a_at) / Fold change /veh FAM212B (11763350_a_at) / RFU PLEKHG5 (11743358_a_at) / Fold change /veh PLEKHG5 (11743358_a_at) / RFU ZSCAN30 (11745921_a_at) / Fold change /veh ZSCAN30 (11745921_a_at) / RFU CMKLR1 (11741424_a_at) / Fold change /veh CMKLR1 (11741424_a_at) / RFU LOC101060620 /// MAPK8IP1 (11723275_at) / Fold change /veh LOC101060620 /// MAPK8IP1 (11723275_at) / RFU SPTSSB (11747773_x_at) / Fold change /veh SPTSSB (11747773_x_at) / RFU PRSS12 (11739890_at) / Fold change /veh PRSS12 (11739890_at) / RFU BIN1 (11741810_x_at) / Fold change /veh BIN1 (11741810_x_at) / RFU WNT11 (11732464_a_at) / Fold change /veh WNT11 (11732464_a_at) / RFU C10orf10 (11716521_a_at) / Fold change /veh C10orf10 (11716521_a_at) / RFU C5orf56 (11738089_at) / Fold change /veh C5orf56 (11738089_at) / RFU CYB561 (11721691_x_at) / Fold change /veh CYB561 (11721691_x_at) / RFU ANKRD19P (11752326_a_at) / Fold change /veh ANKRD19P (11752326_a_at) / RFU OR2T12 /// OR2T33 /// OR2T8 (11738714_s_at) / Fold change /veh OR2T12 /// OR2T33 /// OR2T8 (11738714_s_at) / RFU VCAN (11748164_a_at) / Fold change /veh VCAN (11748164_a_at) / RFU JSRP1 (11732532_at) / Fold change /veh JSRP1 (11732532_at) / RFU KRTAP10-11 (11738290_x_at) / Fold change /veh KRTAP10-11 (11738290_x_at) / RFU MYO3A (11730013_a_at) / Fold change /veh MYO3A (11730013_a_at) / RFU EBF3 (11725865_a_at) / Fold change /veh EBF3 (11725865_a_at) / RFU CAMK2N1 (11719241_x_at) / Fold change /veh CAMK2N1 (11719241_x_at) / RFU C5orf56 (11738088_a_at) / Fold change /veh C5orf56 (11738088_a_at) / RFU OLFML3 (11715873_a_at) / Fold change /veh OLFML3 (11715873_a_at) / RFU LOC100653217 /// NTM (11731650_a_at) / Fold change /veh LOC100653217 /// NTM (11731650_a_at) / RFU MAPK11 (11762145_a_at) / Fold change /veh MAPK11 (11762145_a_at) / RFU FIZ1 (11724087_x_at) / Fold change /veh FIZ1 (11724087_x_at) / RFU OASL (11726364_x_at) / Fold change /veh OASL (11726364_x_at) / RFU SOX15 (11748057_x_at) / Fold change /veh SOX15 (11748057_x_at) / RFU CD79A (11719716_a_at) / Fold change /veh CD79A (11719716_a_at) / RFU HIST1H1D (11736915_at) / Fold change /veh HIST1H1D (11736915_at) / RFU CASKIN2 (11723855_a_at) / Fold change /veh CASKIN2 (11723855_a_at) / RFU LOC730098 (11760151_x_at) / Fold change /veh LOC730098 (11760151_x_at) / RFU OR4N2 (11742367_at) / Fold change /veh OR4N2 (11742367_at) / RFU PRRT2 (11749266_a_at) / Fold change /veh PRRT2 (11749266_a_at) / RFU SNX32 (11753110_a_at) / Fold change /veh SNX32 (11753110_a_at) / RFU CDHR5 (11726645_a_at) / Fold change /veh CDHR5 (11726645_a_at) / RFU RCAN1 (11760418_a_at) / Fold change /veh RCAN1 (11760418_a_at) / RFU FAM167A (11723789_a_at) / Fold change /veh FAM167A (11723789_a_at) / RFU FAM26E (11764081_at) / Fold change /veh FAM26E (11764081_at) / RFU ISYNA1 (11749810_s_at) / Fold change /veh ISYNA1 (11749810_s_at) / RFU ACY1 (11761880_at) / Fold change /veh ACY1 (11761880_at) / RFU 11764098_at / Fold change /veh 11764098_at / RFU SAMD14 (11745864_x_at) / Fold change /veh SAMD14 (11745864_x_at) / RFU NPB (11741838_a_at) / Fold change /veh NPB (11741838_a_at) / RFU TMPRSS6 (11731388_a_at) / Fold change /veh TMPRSS6 (11731388_a_at) / RFU KRTAP10-2 (11738614_at) / Fold change /veh KRTAP10-2 (11738614_at) / RFU ARHGAP8 /// PRR5-ARHGAP8 (11727945_x_at) / Fold change /veh ARHGAP8 /// PRR5-ARHGAP8 (11727945_x_at) / RFU KRTAP5-7 /// NADSYN1 (11734609_at) / Fold change /veh KRTAP5-7 /// NADSYN1 (11734609_at) / RFU RASL12 (11751679_a_at) / Fold change /veh RASL12 (11751679_a_at) / RFU CDKN2B (11736163_a_at) / Fold change /veh CDKN2B (11736163_a_at) / RFU PRF1 (11729649_at) / Fold change /veh PRF1 (11729649_at) / RFU, ZNF638 /// ZNF638-IT1 / Fold change vs veh, ZNF638 /// ZNF638-IT1 / RFU, PANK3 / Fold change vs veh, PANK3 / RFU, SH3YL1 / Fold change vs veh, SH3YL1 / RFU, ZEB2 / Fold change vs veh, ZEB2 / RFU, NRIP1 / Fold change vs veh, NRIP1 / RFU, PTTG1IP / Fold change vs veh, PTTG1IP / RFU, CAPN2 / Fold change vs veh, CAPN2 / RFU, MED14 / Fold change vs veh, MED14 / RFU, SNORA58 / Fold change vs veh, SNORA58 / RFU, C1orf63 / Fold change vs veh, C1orf63 / RFU, LRRFIP1 / Fold change vs veh, LRRFIP1 / RFU, NDUFAF7 / Fold change vs veh, NDUFAF7 / RFU, SLC12A2 / Fold change vs veh, SLC12A2 / RFU, IBTK / Fold change vs veh, IBTK / RFU, ESF1 / Fold change vs veh, ESF1 / Fold change vs veh, TMEM50B / RFU, TAOK1 / Fold change vs veh, TAOK1 / RFU, ACBD3 / Fold change vs veh, ACBD3 / RFU, TMA16 / Fold change vs veh, TMA16 / RFU, RWDD3 / Fold change vs veh, RWDD3 / RFU, BCAT1 / Fold change vs veh, BCAT1 / RFU, EDEM3 / Fold change vs veh, EDEM3 / RFU, TMEM33 / Fold change vs veh, TMEM33 / RFU, WDR75 / Fold change vs veh, WDR75 / RFU, AHCTF1 / Fold change vs veh, AHCTF1 / RFU, TFRC / Fold change vs veh, TFRC / RFU, ZDHHC17 / Fold change vs veh, ZDHHC17 / RFU, NOM1 / Fold change vs veh, NOM1 / RFU, ARL8B / Fold change vs veh, ARL8B / RFU, ZBTB11 / Fold change vs veh, ZBTB11 / RFU, TAMM41 / Fold change vs veh, TAMM41 / RFU, KIAA1704 /// LOC100996395 / Fold change vs veh, KIAA1704 /// LOC100996395 / RFU, ING1 / Fold change vs veh, ING1 / RFU, TRMT61B / Fold change vs veh, TRMT61B / RFU, FUBP3 / Fold change vs veh, FUBP3 / RFU, TP53 / Fold change vs veh, TP53 / RFU, TNKS2 / Fold change vs veh, TNKS2 / RFU, ZFP14 / Fold change vs veh, ZFP14 / RFU, ACTR2 / Fold change vs veh, ACTR2 / RFU, PPP3R1 / Fold change vs veh, PPP3R1 / RFU, PIK3R1 / Fold change vs veh, PIK3R1 / RFU, HNRNPA1 / Fold change vs veh, HNRNPA1 / RFU, RNF170 / Fold change vs veh, RNF170 / RFU, ZNF28 / Fold change vs veh, ZNF28 / RFU, RNGTT / Fold change vs veh, RNGTT / RFU, OGT / Fold change vs veh, OGT / RFU, BRD1 / Fold change vs veh, BRD1 / RFU, MARS / Fold change vs veh, MARS / RFU, ZNF655 / Fold change vs veh, ZNF655 / RFU, FAHD1 / Fold change vs veh, FAHD1 / RFU, BDP1 / Fold change vs veh, BDP1 / RFU, LRRCC1 / Fold change vs veh, LRRCC1 / RFU, ARID1A / Fold change vs veh, ARID1A / RFU, ZNF146 / Fold change vs veh, ZNF146 / RFU, ZNF330 / Fold change vs veh, ZNF330 / RFU, GPN3 / Fold change vs veh, GPN3 / RFU, C9orf123 / Fold change vs veh, C9orf123 / RFU, N4BP2L2 / Fold change vs veh, N4BP2L2 / RFU, ARFIP1 / Fold change vs veh, ARFIP1 / RFU, FAM179B / Fold change vs veh, FAM179B / RFU, BCL10 / Fold change vs veh, BCL10 / RFU, UHRF1BP1L / Fold change vs veh, UHRF1BP1L / RFU, BET1 / Fold change vs veh, BET1 / RFU, CNOT2 / Fold change vs veh, CNOT2 / RFU, ZNF268 / Fold change vs veh, ZNF268 / Fold change vs veh, ZNF507 / RFU, DGCR2 / Fold change vs veh, DGCR2 / RFU, WDSUB1 / Fold change vs veh, WDSUB1 / Fold change vs veh, HSP90B1 /// MIR3652 / RFU, ADSS / Fold change vs veh, ADSS / RFU, GK / Fold change vs veh, GK / RFU, ZNF148 / Fold change vs veh, ZNF148 / RFU, TAF9 / Fold change vs veh, TAF9 / RFU, SLC1A5 / Fold change vs veh, SLC1A5 / RFU, SLMO2 / Fold change vs veh, SLMO2 / RFU, ABCC4 / Fold change vs veh, ABCC4 / RFU, LOC101060439 /// RAP1B / Fold change vs veh, LOC101060439 /// RAP1B / RFU, RFX7 / Fold change vs veh, RFX7 / RFU, GTPBP10 / Fold change vs veh, GTPBP10 / RFU, CNEP1R1 / Fold change vs veh, CNEP1R1 / RFU, BIVM-ERCC5 /// ERCC5 / Fold change vs veh, BIVM-ERCC5 /// ERCC5 / RFU, ILF3 / Fold change vs veh, ILF3 / RFU 11762660_at / Fold change /veh 11762660_at / RFU VCAN (11757783_s_at) / Fold change /veh VCAN (11757783_s_at) / RFU DDX43 (11728927_at) / Fold change /veh DDX43 (11728927_at) / RFU KRT8 (11758188_x_at) / Fold change /veh KRT8 (11758188_x_at) / RFU NKD1 (11759106_at) / Fold change /veh NKD1 (11759106_at) / RFU SRD5A1 (11742802_a_at) / Fold change /veh SRD5A1 (11742802_a_at) / RFU TPSAB1 /// TPSB2 (11721975_s_at) / Fold change /veh TPSAB1 /// TPSB2 (11721975_s_at) / RFU GSTM3 (11746129_a_at) / Fold change /veh GSTM3 (11746129_a_at) / RFU IL23R (11737362_x_at) / Fold change /veh IL23R (11737362_x_at) / RFU TMEM51 (11727254_a_at) / Fold change /veh TMEM51 (11727254_a_at) / RFU PIWIL2 (11732686_x_at) / Fold change /veh PIWIL2 (11732686_x_at) / RFU ORM1 (11744905_x_at) / Fold change /veh ORM1 (11744905_x_at) / RFU CCDC152 (11743942_at) / Fold change /veh CCDC152 (11743942_at) / RFU ECM1 (11717891_a_at) / Fold change /veh ECM1 (11717891_a_at) / RFU IL23R (11748794_a_at) / Fold change /veh IL23R (11748794_a_at) / RFU TNFAIP8L3 (11732012_x_at) / Fold change /veh TNFAIP8L3 (11732012_x_at) / RFU MBOAT4 (11741988_at) / Fold change /veh MBOAT4 (11741988_at) / RFU 11764193_at / Fold change /veh 11764193_at / RFU TMEM53 (11763286_at) / Fold change /veh TMEM53 (11763286_at) / RFU MAGEB2 (11727129_at) / Fold change /veh MAGEB2 (11727129_at) / RFU TMEM200A (11744735_a_at) / Fold change /veh TMEM200A (11744735_a_at) / RFU CCDC152 (11751479_a_at) / Fold change /veh CCDC152 (11751479_a_at) / RFU FAM211A (11726209_a_at) / Fold change /veh FAM211A (11726209_a_at) / RFU RGS16 (11746705_a_at) / Fold change /veh RGS16 (11746705_a_at) / RFU VCAN (11755009_s_at) / Fold change /veh VCAN (11755009_s_at) / RFU RHOB (11743442_s_at) / Fold change /veh RHOB (11743442_s_at) / RFU RGS16 (11720943_a_at) / Fold change /veh RGS16 (11720943_a_at) / RFU RGS16 (11720944_at) / Fold change /veh RGS16 (11720944_at) / RFU, VPS4B / Fold change vs veh, VPS4B / RFU, CREB1 / Fold change vs veh, CREB1 / RFU, DNAJC13 / Fold change vs veh, DNAJC13 / RFU, GNAQ / Fold change vs veh, GNAQ / RFU, CDK5R1 / Fold change vs veh, CDK5R1 / RFU, ZRANB3 / Fold change vs veh, ZRANB3 / RFU, CUL4A / Fold change vs veh, CUL4A / RFU, CCNY / Fold change vs veh, CCNY / RFU, UFL1 / Fold change vs veh, UFL1 / RFU, COG3 / Fold change vs veh, COG3 / RFU, DIAPH2 / Fold change vs veh, DIAPH2 / RFU, SKA2 / Fold change vs veh, SKA2 / RFU, AFF3 / Fold change vs veh, AFF3 / RFU, LMF1 / Fold change vs veh, LMF1 / RFU, IPO11 / Fold change vs veh, IPO11 / RFU, DFFB / Fold change vs veh, DFFB / RFU, FOXP1 / Fold change vs veh, FOXP1 / RFU, CARD8 / Fold change vs veh, CARD8 / RFU, STRN3 / Fold change vs veh, STRN3 / RFU, ADK / Fold change vs veh, ADK / RFU, RASSF2 / Fold change vs veh, RASSF2 / RFU, WIPF1 / Fold change vs veh, WIPF1 / RFU, LARP1B / Fold change vs veh, LARP1B / RFU, RASA1 / Fold change vs veh, RASA1 / RFU, RB1 / Fold change vs veh, RB1 / RFU, PPFIA1 / Fold change vs veh, PPFIA1 / RFU, MAT2A / Fold change vs veh, MAT2A / RFU, CCT5 / Fold change vs veh, CCT5 / RFU, WDR92 / Fold change vs veh, WDR92 / RFU, CUX1 / Fold change vs veh, CUX1 / RFU, TTC7A / Fold change vs veh, TTC7A / RFU, TMEM135 / Fold change vs veh, TMEM135 / RFU, DEPTOR / Fold change vs veh, DEPTOR / RFU, CPM / Fold change vs veh, CPM / RFU, DNAJB6 / Fold change vs veh, DNAJB6 / RFU, CACNA2D3 / Fold change vs veh, CACNA2D3 / RFU, DTX4 / Fold change vs veh, DTX4 / RFU, TFCP2 / Fold change vs veh, TFCP2 / RFU, GMCL1 /// GMCL1P1 / Fold change vs veh, GMCL1 /// GMCL1P1 / RFU, AEBP2 / Fold change vs veh, AEBP2 / RFU, SNHG1 /// SNORD22 /// SNORD25 /// SNORD26 /// SNORD27 /// SNORD28 /// SNORD29 /// SNORD31 / Fold change vs veh, SNHG1 /// SNORD22 /// SNORD25 /// SNORD26 /// SNORD27 /// SNORD28 /// SNORD29 /// SNORD31 / Fold change (Aza/veh), C12orf56 (ProbeSet 11735607_a_at) / Fold change (ACY-1035/veh), C12orf56 (ProbeSet 11735607_a_at) / Fold change (Aza/veh), FGFR1OP (ProbeSet 11751329_s_at) / Fold change (ACY-1035/veh), FGFR1OP (ProbeSet 11751329_s_at) / Fold change (Aza/veh), VPS36 (ProbeSet 11739960_a_at) / Fold change (ACY-1035/veh), VPS36 (ProbeSet 11739960_a_at) / RFU SYPL1 (11715823_x_at) / Fold change /veh SYPL1 (11715823_x_at) / RFU IGFBP7 (11715501_s_at) / Fold change /veh IGFBP7 (11715501_s_at) / RFU REEP3 (11722064_at) / Fold change /veh REEP3 (11722064_at) / RFU IGLL1 (11728026_x_at) / Fold change /veh IGLL1 (11728026_x_at): dose or concentration left out as unconfirmed. As to conditions: ProbeSet 11732433_s_at; LIST B.

With `Nc1ncn([C@@H]2O[C@H](CO)[C@@H](O)[C@H]2O)c(=O)n1` [azacitidine], the “Fold change vs veh, GK” value came out at 0.93.
